Results reported in patent US11833125B2, “Pharmaceutical composition for controlled release of treprostinil” (Pharmosa Biopharm Inc., priority 2018, dated 2023).

Assays:
Sprague Dawley rats = assay: Safety evaluation of inhaled composition: cage-side observation of upper airway irritation; assay type: in vivo; settings: nebulized, nose-only inhalation, 6 μg/kg/day for 10 days; frequency of clinical signs in 10 inhalations; n = 3
Experimental: In this study, 8 male Sprague Dawley rats (purchased from BioLASCO Taiwan Co., Ltd.) were divided into 3 groups: control group (n=2), comparative group (n=3) and experimental group (n=3). The experimental group rats and the comparative group rats were placed in restraining tubes and given nebulized treprostinil liposomal composition LB11500 from Example 2 and free treprostinil solution, respectively, at a dosage of 6 μg/kg/day for 10 days, via a 20-port nose-only Buxco inhalation exposure system (DSI, USA). An air flow carried aerosol generated by mesh vibrating nebulizer was provided to the system tower where the rats are encased in, at a rate of 10 L/min. The control group rats received no exposure to the drug.
During the study, cage-side clinical observation was performed on each rat by a single observer to record incidences of upper airway irritation due to the inhaled nebulized treprostinil liposomal composition or free treprostinil solution. Manifestations of upper airway irritation include tension, sneezing, erythematous pinnae, tremor, hunched posture, piloerection, tachypnea and labored breathing, hyperpnea and epistaxis.

[1] = In vivo pharmacokinetics study, intra-tracheal administration, plasma treprostinil by LC-MS/MS; parameters: species or system Sprague-Dawley rats; settings: rat, FIGS. 1A and 1B
Experimental: In this in vivo PK study, Sprague-Dawley rats (purchased from BioLASCO Taiwan Co., Ltd.) were anaesthetized with isoflurane, and positioned securely on its back to an arched platform in a dorsal position at a 45° to 50° plane using a ribbon hooked around upper incisors. A microspray aerosol tip (Microsprayer, PennCentury, Philadelphia, USA) was inserted to the tracheal bifurcation of each rat, and a test sample (i.e., compositions in Table 2 or free treprostinil solution) was administered intra-tracheally to each rat at a given dose using a high-pressure syringe that is attached to the microspray aerosol device. […] The blood sample was then centrifuged at approximately 2500×g for 15 min and at 4±2° C. within 1 hour of collection, so as to separate the plasma from the blood cells. Approximately 0.1 mL of the obtained plasma sample from each rat was added into a new storage tube and stored in a freezer with a temperature maintained at −70±2° C. […] The obtained supernatant (150 μL) was mixed with an equal volume of H2O and analyzed by liquid chromatography-tandem mass spectrometry (LC-MS/MS) to determine the treprostinil concentration in the plasma sample of the rat. […]

## CCCCC[C@H](O)CC[C@@H]1[C@H]2Cc3cccc(OCC(=O)O)c3C[C@H]2C[C@H]1O [free treprostinil, treprostinil]
Sprague Dawley rats
  Incidences of upper airway irritation: 17
[1]
  time at which plasma treprostinil concentration peaked: ≤ 5 min
